# Tests used:
# [1] = Abdominal contrast enhanced CT in minipig, arterial phase, SNR of ROI; assay type: in vivo; details: for ASiR 60% [SNR] / Veo [SNR]: 80 kVp
# Description: (§1) An anaesthetized minipig (abdominal maximum and minimum diameters 36 cm and 20 cm, respectively) was imaged 3 times (imaging protocols 1, 2 and 3, Tables 3 and 4) on a Discovery CT 750 HD. Visipaque (60 mL) was injected at a rate of 2 mL/s into a jugular vein, followed by a 20 mL saline flush at the same injection rate. There was at least a 2 day washout period between each scanning session.
# (§2) Protocol 1 with a Visipaque concentration of 320 mg l/mL and 120 kVp tube voltage represents current standard of care (SoC) imaging for humans. Automated tube current modulation (≦500 mA) was used with a noise index level of 30 and a tube rotation time of 0.7 s. Post-contrast CT images were acquired during the arterial phase, the portal venous phase, the venous phase and the late phase. Image reconstruction was done by (1) FBP, (2) ASiR 60% and (3) Veo. Pixel size was 0.703 mm×0.703 mm×0.625 mm.
# (§3) Iodine contrast enhancement was assessed by measuring the signal-to-noise ratio (SNR) of circular regions of interest (ROI), see Tables 3 and 4. The SNR is calculated as ratio of mean ROI intensity in HU and standard deviation (SD). ROIs were placed in aorta and muscle (quadratus lumborum) in arterial phase images and in liver in venous phase images.
# [2] = Abdominal contrast enhanced CT in minipig, venous phase, SNR of ROI; assay type: in vivo; details: liver; for ASiR 60% [SNR] / Veo [SNR]: 80 kVp
# Description: as §1, §2, §3
# [3] = protocol 1: Visipaque 320 mg I/ml, 120 kVp, CTDIvol 6.7 mGy
# [4] = protocol 2: Visipaque 170 mg I/ml, CTDIvol 3.2 mGy
# [5] = protocol 3: Visipaque 120 mg I/ml, CTDIvol 6.4 mGy
compound,measurement,setting,value
"CC(=O)N(CC(O)CN(C(C)=O)c1c(I)c(C(=O)NCC(O)CO)c(I)c(C(=O)NCC(O)CO)c1I)c1c(I)c(C(=O)NCC(O)CO)c(I)c(C(=O)NCC(O)CO)c1I (stereo not shown) [Visipaque, iodixanol]",FBP [SNR],[1]; [3],8.3
same,ASiR 60% [SNR],[1]; [4],7.4
same,Veo [SNR],[1]; [4],12.8
same,ASiR 60% [SNR],[1]; [5],8.5
same,Veo [SNR],[1]; [5],14.2
same,FBP [SNR],[2]; [3],4.3
same,ASiR 60% [SNR],[2]; [4],3.5
same,Veo [SNR],[2]; [4],8.1
same,ASiR 60% [SNR],[2]; [5],4.7
same,Veo [SNR],[2]; [5],8.1
